Experimental findings from US8754226B2, “Piperidinyl-substituted lactams as GPR119 modulators” (Array BioPharma Inc., priority 2010, dated 2014) are described below.

The experiment concerns modified version of the GPR119 receptor (94% identity to human receptor). Briefly: cAMP production assay (LANCE cAMP kit, TR-FRET) in HEK-293 cells. Format: cell-based. Particulars: for cAMP production in HEK-293 cells: HEK-293 cells stably expressing modified GPR119, test compounds 0.2 nM to 10 μM, one-hour incubation at ambient temperature; for Fold over baseline: increase in cAMP relative to basal levels, agonist activity if 1.5-fold or greater. An outline of the steps: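 Doxycycline-induced (1 μg/mL, overnight) HEK-293 cells expressing modified GPR119 were thawed, 2000 cells/well, and exposed to compounds (0.2 nM-10 μM final, 0.5% DMSO) for 1 h at ambient temperature in HBSS/HEPES/BSA. cAMP was measured by LANCE TR-FRET against a standard curve. Agonism was defined as ≥1.5-fold over basal.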
(Changes in cAMP serve as a functional read-out for many G protein-coupled receptors.)

Regarding `COc1cnc(N2CCC(N3CC[C@H](Nc4ccc(S(C)(=O)=O)cc4F)C3=O)CC2)cn1` [Example 160, (S)-3-(2-fluoro-4-(methylsulfonyl)phenylamino)-1-(1-(5-methoxypyrazin-2-yl)piperidin-4-yl)pyrrolidin-2-one], the “cAMP production in HEK-293 cells” value came to 22.3 nmol and the Fold over baseline was determined as 3.9.
On to `CS(=O)(=O)c1cc(F)c(N[C@H]2CCN(C3CCN(c4ncc(C(F)(F)F)cc4Cl)CC3)C2=O)cc1F` [Example 111, (S)-1-(1-(3-chloro-5-(trifluoromethyl)pyridin-2-yl)piperidin-4-yl)-3-(2,5-difluoro-4-(methylsulfonyl)phenyl-amino)pyrrolidin-2-one], for which the “cAMP production in HEK-293 cells” value was determined as 37.9 nmol and the Fold over baseline is reported as 3.0.
The matching figures for `CS(=O)(=O)c1ccc(N[C@H]2CCN(C3CCN(c4ncc(C(F)(F)F)cc4F)CC3)C2=O)c(F)c1` [Example 114, (S)-3-(2-fluoro-4-(methylsulfonyl)phenyl-amino)-1-(1-(3-fluoro-5-(trifluoromethyl)pyridin-2-yl)piperidin-4-yl)pyrrolidin-2-one]: 17.7 nmol and 3.8.
The matching figures for `CCc1cnc(N2CCC(N3CCC(Oc4ccc(-n5cnnn5)nc4)C3=O)CC2)nc1` (stereo not drawn) [Example 66, 3-(6-(1H-tetrazol-1-yl)pyridin-3-yloxy)-1-(1-(5-ethylpyrimidin-2-yl)piperidin-4-yl)pyrrolidin-2-one]: 4.9 nmol and 1.6.
The matching figures for `CS(=O)(=O)c1ccc(N[C@H]2CCN(C3CCN(c4ncc(C(F)(F)F)cc4Cl)CC3)C2=O)c(F)c1` [Example 107, (S)-1-(1-(3-chloro-5-(trifluoromethyl)pyridin-2-yl)piperidin-4-yl)-3-(2-fluoro-4-(methylsulfonyl)phenylamino)pyrrolidin-2-one]: 20.9 nmol and 3.2.
Turning to `CCc1ccc(N2CCC(N3CCC(Nc4ccc(S(C)(=O)=O)cc4F)C3=O)CC2)nc1` (stereo not drawn) [Example 24, 1-(1-(5-ethylpyridin-2-yl)piperidin-4-yl)-3-(2-fluoro-4-(methylsulfonyl)phenylamino)pyrrolidin-2-one], the “cAMP production in HEK-293 cells” value was determined as 24.8 nmol and the Fold over baseline is 2.9.
The like results for `O=C1[C@@H](Oc2ccc(-n3cnnn3)cc2)CCN1C1CCN(c2ncc(C(F)(F)F)cc2Cl)CC1` [Example 137, (S)-3-(4-(1H-tetrazol-1-yl)phenoxy)-1-(1-(3-chloro-5-(trifluoro-methyl)pyridin-2-yl)piperidin-4-yl) pyrrolidin-2-one] were, in that order, 31.7 nmol and 6.5.
On to `CS(=O)(=O)c1cc(F)c(N[C@H]2CCN(C3CCN(c4ncc(C(F)(F)F)cc4Cl)CC3)C2=O)c(F)c1` [Example 108, (S)-1-(1-(3-chloro-5-(trifluoromethyl)pyridin-2-yl)piperidin-4-yl)-3-(2,6-difluoro-4-(methylsulfonyl)phenyl-amino)pyrrolidin-2-one], for which the “cAMP production in HEK-293 cells” value came to 15.8 nmol and the Fold over baseline was 2.6.
The like results for `Cc1cc(S(C)(=O)=O)ncc1N[C@H]1CCN(C2CCN(c3ncc(Cl)cc3F)CC2)C1=O` [Example 121, (S)-1-(1-(5-chloro-3-fluoropyridin-2-yl)piperidin-4-yl)-3-(4-methyl-6-(methylsulfonyl)pyridin-3-ylamino) pyrrolidin-2-one] were, in that order, 10.6 nmol and 2.5.
The matching figures for `Cc1nnc(-c2ccc(O[C@H]3CCN(C4CCN(c5ncc(Cl)cn5)CC4)C3=O)c(F)c2)o1` [Example 72, (S)-1-(1-(5-chloropyrimidin-2-yl)piperidin-4-yl)-3-(2-fluoro-4-(5-methyl-1,3,4-oxadiazol-2-yl)Phenoxy)pyrrolidin-2-one]: 7.5 nmol and 2.8.
The matching figures for `CCc1cnc(N2CCC(N3CCC(Nc4ccc(S(C)(=O)=O)cc4F)C3=O)CC2)c(C)c1` (stereo not drawn) [Example 28, 1-(1-(5-ethyl-3-methylpyridin-2-yl)piperidin-4-yl)-3-(2-fluoro-4-(methylsulfonyl)phenylamino)pyrrolidin-2-one]: 39.4 nmol and 4.0.
Consider `O=C1[C@@H](Nc2ncc(C(F)(F)F)cc2Cl)CCN1C1CCN(c2cnc(Cl)cn2)CC1` [Example 22, (S)-3-(3-chloro-5-(trifluoromethyl)pyridin-2-ylamino)-1-(1-(5-chloropyrazin-2-yl)piperidin-4-yl)pyrrolidin-2-one], for which the “cAMP production in HEK-293 cells” value was 32.7 nmol and the Fold over baseline was 5.6.
The like results for `CS(=O)(=O)c1ccc(N[C@H]2CCN(C3CCN(c4ncc(C(F)(F)F)cc4Cl)CC3)C2=O)c(F)c1` [Example 102, (S)-1-(1-(3-chloro-5-(trifluoromethyl)pyridin-2-yl)piperidin-4-yl)-3-(2-fluoro-4-(methylsulfonyl)phenylamino) pyrrolidin-2-one] were, in that order, 15.5 nmol and 3.4.
In the case of `CS(=O)(=O)c1ccc(O[C@H]2CCN(C3CCN(c4ncc(Cl)cc4F)CC3)C2=O)c(F)c1` [Example 139, (S)-1-(1-(5-chloro-3-fluoropyridin-2-yl)piperidin-4-yl)-3-(2-fluoro-4-(methylsulfonyl)phenoxy) pyrrolidin-2-one], the “cAMP production in HEK-293 cells” value is 26.6 nmol and the Fold over baseline is 5.0.
The like results for `Cc1ccccc1-c1cnc(N2CCC(N3CC[C@H](Oc4cc(F)c(S(C)(=O)=O)cc4F)C3=O)CC2)nc1` [Example 93, (S)-3-(2,5-difluoro-4-(methylsulfonyl)phenoxy)-1-(1-(5-o-tolylpyrimidin-2-yl)piperidin-4-yl)pyrrolidin-2-one] were, in that order, 11.1 nmol and 2.2.
With `CS(=O)(=O)c1ccc(O[C@H]2CCN(C3CCN(c4ncc(C(F)(F)F)cc4Cl)CC3)C2=O)c(F)c1` [Example 136, (S)-1-(1-(3-chloro-5-(trifluoromethyl)pyridin-2-yl)piperidin-4-yl)-3-(2-fluoro-4-(methyl-sulfonyl)phenoxy)pyrrol-idin-2-one], the “cAMP production in HEK-293 cells” value was 36.5 nmol and the Fold over baseline is on record as 3.0.
On to `CCCc1cnc(N2CCC(N3CCC[C@H](Nc4ccc(S(C)(=O)=O)cc4F)C3=O)CC2)nc1` [Example 42, (S)-3-(2-fluoro-4-(methylsulfonyl)phenylamino)-1′-(5-propylpyrimidin-2-yl)-[1,4′-bipiperidin]-2-one], for which the “cAMP production in HEK-293 cells” value was 5.7 nmol and the Fold over baseline came to 2.1.
The like results for `CS(=O)(=O)c1ccc(N[C@H]2CCN(C3CCN(c4ncc(-c5cn[nH]c5)cn4)CC3)C2=O)c(F)c1` [Example 31, (S)-1-(1-(5-(1H-pyrazol-4-yl)pyrimidin-2-yl)piperidin-4-yl)-3-(2-fluoro-4-(methylsulfonyl)phenylamino)pyrrolidin-2-one] were, in that order, 14.5 nmol and 2.9.
